Measured values: US9381182B2, “Anthranilic acid derivatives: novel inhibitors of advanced glycation end-products (AGEs) formation” (priority 2013, dated 2016)
Like-named read-outs stand apart in the source and are kept apart here.

Legend:
[1] = MTT-based cytotoxicity assay; conditions: mouse, 3T3 mouse fibroblast cells, 3T3 cell-line, read-out: Cytotoxicity % Inhibition
From the text: Many studies have highlighted the contribution of AGEs in disease states and primarily investigated their deleterious effects and their possible mechanism of actions. Therefore, there is a need of synthesis and investigation of novel antiglycation agents, which are devoid of any adverse effects, may present a therapeutic approach for the delaying and treatment of premature aging and vascular abnormalities in diabetic patients. In the current study, we explored the novel antiglycation agents (1-18), which are potent inhibitors against the glycation process, and belong to anthranilic acid derivatives. The inhibitors were identified by using high throughput screening method, fluorescence-based antiglycation assay (see Table-1). The cytotoxicity studies were performed against mouse fibroblast cell-line (3T3 Cell-line) by employing MTT-based cytotoxicity assay. The mechanistic studies were also conducted to evaluate the effect of novel antiglycation inhibitors on AGEs-induced intracellular reactive oxygen species generation (ROS) and associated impaired proliferation in rat hepatocytes via dichlorofluorescin diacetate (DCFH-DA) and MTT-based cytotoxicity assay, respectively. Previously, these novel antiglycation inhibitors were known for anticancer and anti-inflammatory activities (Congiu C, et al., 2005).

[2] = test system: rat hepatocytes (CC1-Cell line); assay: Fructose-derived AGE-mediated intracellular ROS generation, DCFH-DA technique; assay type: cell-based; conditions: for Fluorescence (Average), ROS production: no test compound
Description: Methodology: DCFH-DA (Dichlorofluorescin diacetate), H2O2 (Hydrogen peroxide), DMSO (Dimethyl sulfoxide) and PBS (Phosphate buffer saline) were obtained from Sigma, St. Louis, Mo., USA. 96-well black fluorescence plates (Tissue culture treated) were purchased from Thermo Fisher Scientific, Waltham, Mass., USA.
Assay Method: Briefly, rat hepatocytes (CC1-Cell line, 6×10^4 cells/mL) were loaded on a black fluorescence 96-well tissue culture treated plate for 24 hours at 37° C. in an incubator, containing 5% CO2. The cells were serum starved for another 24 hours by adding serum free medium-MEM (minimum essential medium) prior to treatment with fructose-derived AGE and the test compounds, anthranilic acid derivatives. Initially the cells were treated with non fluorescent probe, DCFH-DA (10 μM) in the dark for 45 mins. Following incubation the cells were washed twice with 1×PBS and were treated with different concentrations of the AGEs, such as 0, 50, 100, and 200 μg/mL, to evaluate the AGEs influence on the generation of intracellular ROS in a concentration dependent manner. The cells were then treated with the test compounds (novel anthranilic acid derivatives) at various concentrations 24, 33, and 49 μM, co-incubated with the AGE (200 μg/mL) for 24 hours at 37° C. At the end of the incubation, just before 1 hour, the cells were incubated with H2O2 (0.5%) as a control.
Fluorescence Detection: The intensity of green fluorescence, which is emitted upon the oxidation of the probe in the presence of intracellular ROS, is measured at the excitation and emission wavelength of 490 nm and 520 nm, respectively, by Spectra Max Spectrophotometer, Applied Biosystems, CA, USA.
Where, • Test compound=anthranilic acid derivative • Blank=Untreated normal rat hepatocytes • Control=Hepatocytes treated with 0.5% H2O2

[3] = test system: rat hepatocytes (CC1-Cell line); assay: AGE-mediated reduced growth of rat hepatocytes, MTT assay; assay type: cell-based; conditions: for Absorbance (Average): 540 nm
From the text: Methodology: Normal, rat hepatocytes (CC1-Cell line) was purchased from ATCC, Manassas, Va., USA. MEM (Minimum Essential Medium) with L-glutamine, trypsin-EDTA, sodium bicarbonate and penicillin-streptomycin were obtained from Sigma, St. Louis, Mo., USA. 96-well tissue culture treated, sterile, round bottom plates were acquired from Thermo Fisher Scientific, Waltham, Mass., USA.
All the treatment with the AGEs and the test compound were done in SFM (serum free medium), and Triton X-100 treated hepatocytes were used as a blank, while untreated normal cells were used as a control.
Determination of Cellular Proliferation: At the end of the incubation, the sample solution was removed and MTT-dye ((2 mg/mL, 50 μL) was added to each well. The final reaction volume (200 μL) was reconstituted by MEM (serum free-Minimum essential media). The plate was incubated for 4 hours at 37° C. in 5% CO2 containing incubator. Following incubation, the serum free medium was removed and the crystals were dissolved by adding DMSO (100 μL) in each well.
Absorbance Detection: The absorbance of the colored solution was measured at 540 nm by Spectra Max Spectrophotometer, Applied Biosystems, CA, USA.
Where, • Test Compound=Novel anthranilic acid derivative • Blank=Hepatocytes treated with Triton X-100 • Control=Untreated normal rat hepatocytes

[4] = biological target: T1, Human serum albumin (HSA) glycation by fructose (AGE-HSA) (Homo sapiens, UniProt P02768); assay: In-vitro antiglycation activity against HSA glycation (fluorescence-based antiglycation assay); assay type: biochemical; conditions: for inhibition at 1000 µM: read-out: Antiglycation Activity % Inhibition
T1 construct: purchased Sigma Aldrich, St. Louis, Mo., USA
Description: Methodology: Human serum albumin (HSA) free from essential fatty acids and rutin were obtained from Sigma Aldrich, St. Louis, Mo., USA. D-fructose, sodium azide (NaN3) and dimethyl sulfoxide (DMSO) were acquired from Merck, Darmstadt, Germany. All solutions were prepared in sterile environment in deionized water at room temperature.
Assay Method: The assay was performed according the protocol of (Sattarahmady N, et al., 2007) with a little modification. […] Each sample solution (200 μL, final reaction volume) in triplicate loaded a 96-wll black fluorescence plate and was incubated for a week at 37° C. in an incubator.

[5] = compound 24 μM, co-incubated with AGEs 200 μg/mL, 24 hours
[6] = compound 33 μM, co-incubated with AGEs 200 μg/mL, 24 hours
[7] = compound 49 μM, co-incubated with AGEs 200 μg/mL, 24 hours
[8] = read-out: Antiglycation Activity IC50 ± SEM

T1 sequence (P02768 25-609): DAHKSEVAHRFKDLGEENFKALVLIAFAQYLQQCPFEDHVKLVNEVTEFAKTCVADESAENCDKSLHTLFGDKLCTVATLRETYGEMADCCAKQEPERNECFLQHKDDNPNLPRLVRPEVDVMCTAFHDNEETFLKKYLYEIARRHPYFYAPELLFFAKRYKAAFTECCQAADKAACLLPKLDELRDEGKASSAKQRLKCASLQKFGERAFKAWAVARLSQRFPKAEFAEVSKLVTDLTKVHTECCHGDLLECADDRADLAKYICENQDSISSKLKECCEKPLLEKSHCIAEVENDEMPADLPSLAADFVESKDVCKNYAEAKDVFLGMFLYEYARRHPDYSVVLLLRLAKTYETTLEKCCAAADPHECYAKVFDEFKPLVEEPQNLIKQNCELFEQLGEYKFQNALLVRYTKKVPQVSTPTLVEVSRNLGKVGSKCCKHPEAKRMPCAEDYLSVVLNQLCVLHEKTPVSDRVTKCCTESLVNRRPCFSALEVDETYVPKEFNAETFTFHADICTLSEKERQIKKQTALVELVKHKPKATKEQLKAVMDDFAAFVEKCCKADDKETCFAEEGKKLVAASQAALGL

Compound	cytotoxicity [1] [%]	inhibition at 1000 µM [4] [%]	IC50 [4] [µM]	also measured
O=C(O)c1ccccc1Nc1ccc([N+](=O)[O-])cc1[N+](=O)[O-] [Compound 1, 2-(2,4-Dinitroanilino)benzoic acid]	1.5	90		inhibition at 24 µM ([2]; Rattus norvegicus, Hepatocyte, compound 24 μM, co-incubated with AGEs 200 μg/mL, 24 hours, read-out: Percentage Inhibition of AGE-induced intracellular ROS generation): 93.4%; inhibition at 33 µM ([2]; Rattus norvegicus, Hepatocyte, compound 33 μM, co-incubated with AGEs 200 μg/mL, 24 hours, read-out: Percentage Inhibition of AGE-induced intracellular ROS generation): 86.9%; inhibition at 49 µM ([2]; Rattus norvegicus, Hepatocyte, compound 49 μM, co-incubated with AGEs 200 μg/mL, 24 hours, read-out: Percentage Inhibition of AGE-induced intracellular ROS generation): 63.2%; Fluorescence (Average) [2, 5]: 90.6; Fluorescence (Average) [2, 6]: 101.2; inhibitory influence on the intracellular generation of ROS (in words) ([2]; compound 49 μM, AGE 200 μg/mL): moderate inhibitory influence; Fluorescence (Average) [2, 7]: 139.5; inhibition at 24 µM ([3]; Rattus norvegicus, Hepatocyte, 24 h, compound 24 μM, co-incubated with AGEs 200 μg/mL, 24 hours, read-out: Percentage Inhibition (growth inhibition of hepatocytes)): 12%; inhibition at 33 µM ([3]; Rattus norvegicus, Hepatocyte, 24 h, compound 33 μM, co-incubated with AGEs 200 μg/mL, 24 hours, read-out: Percentage Inhibition (growth inhibition of hepatocytes)): 18.5%; inhibition at 49 µM ([3]; Rattus norvegicus, Hepatocyte, 24 h, compound 49 μM, co-incubated with AGEs 200 μg/mL, 24 hours, read-out: Percentage Inhibition (growth inhibition of hepatocytes)): 18.8%; Percentage Inhibition (growth inhibition of hepatocytes) ([3]; compound 24 μM, co-incubated with AGEs 200 μg/mL, 24 hours, 24 µM): 12.3%; Absorbance (Average) [3, 5]: 1.15; cytotoxic effect of the AGEs on the hepatocytes in presence of compound (in words) ([3]; compound 33 μM, AGEs 200 μg/mL): no cytotoxic effect; Absorbance (Average) [3, 6]: 1.09; reducing the toxic effects of the AGEs on the hepatocytes proliferation (in words) ([3]; compound 49 μM, AGEs 200 μg/mL): safe and effective; Absorbance (Average) [3, 7]: 1.08; IC50 [4, 8]: 67.2 ± 0.004 µM
O=C(O)c1ccccc1Nc1ccc(Cl)cc1[N+](=O)[O-] [Compound 2, 2-(4-Chloro-2-nitroanilino)benzoic acid]	5.6	82	137 ± 0.002	
COc1cc(OC)c(Nc2ccccc2C(=O)O)cc1Cl [Compound 3, 2-(5-Chloro-2,4-dimethoxyanilino)benzoic acid]	22.4	75.1	266 ± 0.016	
O=C(O)c1ccccc1Nc1ccc(Cl)c([N+](=O)[O-])c1 [Compound 4, 2-(4-Chloro-3-nitroanilino)benzoic acid]	19.7	68.9	266 ± 0.01	
O=C(O)c1ccccc1Nc1ccc(Cl)cc1 [Compound 5, 2-(4-Chloroanilino)benzoic acid]	41.3	62	298 ± 0.015	
O=C(O)c1ccccc1Nc1ccccc1Cl [Compound 6, 2-(2-Chloroanilino)benzoic acid]	0.9	68	426 ± 0.017	
O=C(O)c1ccccc1Nc1cc(Cl)cc([N+](=O)[O-])c1 [Compound 7, 2-(3-Chloro-5-nitroanilino)benzoic acid]	13	84.4	166 ± 0.017	
Cc1ccc(Cl)cc1Nc1ccccc1C(=O)O [Compound 8, 2-(5-Chloro-2-methylanilino)benzoic acid]	3.2	69	408 ± 0.03	
O=C(O)c1ccccc1Nc1cc([N+](=O)[O-])ccc1Cl [Compound 9, 2-(2-Chloro-5-nitroanilino)benzoic acid]	3	79.4	314 ± 0.01	
O=C(O)c1ccccc1Nc1ccc(F)cc1F [Compound 10, 2-(2,4-Difluoroanilino)benzoic acid]	1.1	63	558 ± 0.066	
O=C(O)c1ccccc1Nc1ccc(Cl)c(Cl)c1 [Compound 11, 2-(3,4-Dichloroanilino)benzoic acid]	40.1	62	597 ± 0.021	
CCCCc1ccc(Nc2ccccc2C(=O)O)cc1 [Compound 12, 2-(4-Butylanilino)benzoic acid]	17.3	70	407 ± 0.01	
Cc1cc(C)cc(Nc2ccccc2C(=O)O)c1 [Compound 13, 2-(3,5-Dimethylanilino)benzoic acid]	4.8	65	457 ± 0.019	
O=C(O)c1ccccc1Nc1cc(Cl)c([N+](=O)[O-])cc1Cl [Compound 14, 2-(2,5-Dichloro-4-nitroanilino)benzoic acid]	29.6	88.8	84.8 ± 0.003	
O=C(O)c1ccccc1Nc1cc(Cl)ccc1Cl [Compound 15, 2-(2,5-Dichloroanilino)benzoic acid]	1.6	62	678 ± 0.047	
O=C(O)c1ccccc1Nc1cccc([N+](=O)[O-])c1 [Compound 16, 2-(3-Nitroanilino)benzoic acid]	4.1	80		IC50 [4, 8]: 264 ± 0.013 µM
O=C(O)c1ccccc1Nc1cc(Cl)ccc1[N+](=O)[O-] [Compound 17, 2-(5-Chloro-2-nitroanilino)benzoic acid]	1.5	78	150 ± 0.001	
COc1cccc(Nc2ccccc2C(=O)O)c1 [Compound 18, 2-(3-Methoxyanilino)benzoic acid]	7.1	71	398 ± 0.007	
C[C@@H]1O[C@@H](OC[C@H]2O[C@@H](Oc3c(-c4ccc(O)c(O)c4)oc4cc(O)cc(O)c4c3=O)[C@H](O)[C@@H](O)[C@@H]2O)[C@H](O)[C@H](O)[C@H]1O [rutin, reference compound]				IC50 [4, 8]: 70 ± 0.5 µM
AGEs				Fluorescence (Average), ROS production ([2]; 50 μg/mL, 24 hours): 114.4; Fluorescence (Average), ROS production ([2]; 100 μg/mL, 24 hours): 135.3; Fluorescence (Average), ROS production ([2]; 200 μg/mL, 24 hours): 201.9
